Assays:
Type in all cases: in vitro ADME
Conditions in all cases: substrate 4MeO-NE-BP 25 µM, 30 min, 37 °C; Table S3.1
[1] = target: T1, CYP2B6 (Homo sapiens, UniProt P20813); assay: Monooxygenases activity screening, CYP2B6; design: key: +, detected; -, not detected
T1 construct: purchased Discovery Life Sciences (Huntsville, LA, USA); host or cells: baculovirus-infected insect cells (microsomes, Supersomes)
T1 sequence (P20813 1-491): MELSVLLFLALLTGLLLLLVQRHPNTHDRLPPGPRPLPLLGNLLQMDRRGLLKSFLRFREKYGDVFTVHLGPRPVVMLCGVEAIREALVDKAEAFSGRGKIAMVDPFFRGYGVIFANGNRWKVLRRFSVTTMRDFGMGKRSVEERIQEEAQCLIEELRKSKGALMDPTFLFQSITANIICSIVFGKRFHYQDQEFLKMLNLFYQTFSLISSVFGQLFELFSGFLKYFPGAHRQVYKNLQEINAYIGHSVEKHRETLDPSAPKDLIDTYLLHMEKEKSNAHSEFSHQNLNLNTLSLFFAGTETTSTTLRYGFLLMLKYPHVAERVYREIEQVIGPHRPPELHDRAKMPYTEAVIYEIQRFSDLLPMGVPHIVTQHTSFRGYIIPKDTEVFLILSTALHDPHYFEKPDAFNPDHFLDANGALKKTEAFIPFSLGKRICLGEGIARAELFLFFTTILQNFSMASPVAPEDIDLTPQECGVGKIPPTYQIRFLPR
Experimental: (§1) For incubations with CYP2A6 or CYP2C9, phosphate buffer was replaced with 90 mM Tris buffer, according to the manufacturer’s guideline. […] All incubations were done in duplicate and concentrations were fixed. Verapamil (25 µM) was incubated as a positive control.

[2] = target: T2, CYP2C8 (Homo sapiens, UniProt P10632); assay: Monooxygenases activity screening, CYP2C8; design: key: +, detected; -, not detected
T2 construct: purchased Discovery Life Sciences (Huntsville, LA, USA); host or cells: baculovirus-infected insect cells (microsomes, Supersomes)
T2 sequence (P10632 1-490): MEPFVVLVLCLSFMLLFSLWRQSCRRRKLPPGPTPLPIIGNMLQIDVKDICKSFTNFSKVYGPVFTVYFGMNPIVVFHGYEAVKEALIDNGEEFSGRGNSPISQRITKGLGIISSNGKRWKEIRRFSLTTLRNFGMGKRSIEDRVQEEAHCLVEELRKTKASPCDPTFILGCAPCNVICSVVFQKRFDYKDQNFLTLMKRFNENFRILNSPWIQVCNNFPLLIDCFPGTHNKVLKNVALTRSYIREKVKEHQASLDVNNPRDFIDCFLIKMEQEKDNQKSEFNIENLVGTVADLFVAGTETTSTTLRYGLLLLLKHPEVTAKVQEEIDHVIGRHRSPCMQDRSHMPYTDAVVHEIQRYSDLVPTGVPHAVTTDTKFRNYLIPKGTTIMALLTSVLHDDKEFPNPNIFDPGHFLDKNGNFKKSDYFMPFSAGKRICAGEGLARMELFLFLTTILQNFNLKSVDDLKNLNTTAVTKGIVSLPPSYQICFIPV
Experimental: as §1

[3] = target: T3, CYP2C19 (Homo sapiens, UniProt P33261); assay: Monooxygenases activity screening, CYP2C19; design: key: +, detected; -, not detected
T3 construct: purchased Discovery Life Sciences (Huntsville, LA, USA); host or cells: baculovirus-infected insect cells (microsomes, Supersomes)
Experimental: as §1

[4] = target: T4, CYP3A5 (Homo sapiens, UniProt P20815); assay: Monooxygenases activity screening, CYP3A5; design: key: +, detected; -, not detected
T4 construct: purchased Discovery Life Sciences (Huntsville, LA, USA); host or cells: baculovirus-infected insect cells (microsomes, Supersomes)
Experimental: as §1

[5] = target: T5, CYP2D6 (Homo sapiens, UniProt P10635); assay: Monooxygenases activity screening, CYP2D6; design: key to one-step metabolite detected in CYP2D6 incubation: +, detected; -, not detected
T5 construct: purchased Discovery Life Sciences (Huntsville, LA, USA); host or cells: baculovirus-infected insect cells (microsomes, Supersomes)
Experimental: as §1

[6] = target: T6, CYP2C9 (Homo sapiens, UniProt P11712); assay: Monooxygenases activity screening, CYP2C9; design: key: +, detected; -, not detected
T6 construct: purchased Discovery Life Sciences (Huntsville, LA, USA); host or cells: baculovirus-infected insect cells (microsomes, Supersomes)
Experimental: as §1

[7] = target: T7, CYP2E1 (Homo sapiens, UniProt P05181); assay: Monooxygenases activity screening, CYP2E1; design: key: +, detected; -, not detected
T7 construct: purchased Discovery Life Sciences (Huntsville, LA, USA); host or cells: baculovirus-infected insect cells (microsomes, Supersomes)
Experimental: as §1

[8] = target: T8, CYP3A4 (Homo sapiens, UniProt P08684); assay: Monooxygenases activity screening, CYP3A4; design: key: +, detected; -, not detected
T8 construct: purchased Discovery Life Sciences (Huntsville, LA, USA); host or cells: baculovirus-infected insect cells (microsomes, Supersomes)
Experimental: as §1

[9] = target: T9, CYP1A2 (Homo sapiens, UniProt P05177); assay: Monooxygenases activity screening, CYP1A2; design: key: +, detected; -, not detected
T9 construct: purchased Discovery Life Sciences (Huntsville, LA, USA); host or cells: baculovirus-infected insect cells (microsomes, Supersomes)
T9 sequence (P05177 1-516): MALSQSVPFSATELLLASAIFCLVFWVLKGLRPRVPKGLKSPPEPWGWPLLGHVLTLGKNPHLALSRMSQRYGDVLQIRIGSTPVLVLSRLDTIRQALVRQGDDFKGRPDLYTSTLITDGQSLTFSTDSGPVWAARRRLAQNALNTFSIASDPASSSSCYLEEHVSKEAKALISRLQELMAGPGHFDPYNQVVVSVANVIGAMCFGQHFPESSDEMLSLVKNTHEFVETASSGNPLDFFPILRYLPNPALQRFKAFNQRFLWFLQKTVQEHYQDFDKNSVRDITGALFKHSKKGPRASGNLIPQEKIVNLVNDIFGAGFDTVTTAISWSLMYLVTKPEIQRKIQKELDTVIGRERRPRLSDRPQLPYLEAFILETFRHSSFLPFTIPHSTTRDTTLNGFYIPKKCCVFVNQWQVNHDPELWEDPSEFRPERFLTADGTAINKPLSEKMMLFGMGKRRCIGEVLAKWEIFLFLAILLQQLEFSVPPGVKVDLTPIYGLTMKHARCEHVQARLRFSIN
Experimental: as §1

[10] = target: T10, CYP2A6 (Homo sapiens, UniProt P11509); assay: Monooxygenases activity screening, CYP2A6; design: key: +, detected; -, not detected
T10 construct: purchased Discovery Life Sciences (Huntsville, LA, USA); host or cells: baculovirus-infected insect cells (microsomes, Supersomes)
T10 sequence (P11509 1-494): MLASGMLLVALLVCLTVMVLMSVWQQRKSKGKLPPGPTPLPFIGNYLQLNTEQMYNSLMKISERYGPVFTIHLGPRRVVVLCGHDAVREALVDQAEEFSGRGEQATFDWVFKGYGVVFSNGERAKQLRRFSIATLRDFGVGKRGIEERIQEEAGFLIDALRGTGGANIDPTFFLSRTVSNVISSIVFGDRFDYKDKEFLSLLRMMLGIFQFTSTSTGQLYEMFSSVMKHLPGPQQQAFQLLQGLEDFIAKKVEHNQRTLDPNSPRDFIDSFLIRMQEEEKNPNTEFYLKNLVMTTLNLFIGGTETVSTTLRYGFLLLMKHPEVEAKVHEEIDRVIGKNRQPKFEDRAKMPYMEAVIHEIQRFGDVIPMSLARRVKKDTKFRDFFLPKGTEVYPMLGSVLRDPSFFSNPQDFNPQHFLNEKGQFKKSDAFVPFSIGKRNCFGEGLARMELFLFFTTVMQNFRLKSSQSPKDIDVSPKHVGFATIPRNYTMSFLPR
Experimental: as §1

[11] = target: T11, flavin-containing monooxygenase 3 (FMO3) (Homo sapiens, UniProt P31513); assay: Monooxygenases activity screening, FMO3; design: key: +, detected; -, not detected
T11 construct: purchased Discovery Life Sciences (Huntsville, LA, USA); host or cells: baculovirus-infected insect cells (microsomes, Supersomes)
T11 sequence (P31513 1-532): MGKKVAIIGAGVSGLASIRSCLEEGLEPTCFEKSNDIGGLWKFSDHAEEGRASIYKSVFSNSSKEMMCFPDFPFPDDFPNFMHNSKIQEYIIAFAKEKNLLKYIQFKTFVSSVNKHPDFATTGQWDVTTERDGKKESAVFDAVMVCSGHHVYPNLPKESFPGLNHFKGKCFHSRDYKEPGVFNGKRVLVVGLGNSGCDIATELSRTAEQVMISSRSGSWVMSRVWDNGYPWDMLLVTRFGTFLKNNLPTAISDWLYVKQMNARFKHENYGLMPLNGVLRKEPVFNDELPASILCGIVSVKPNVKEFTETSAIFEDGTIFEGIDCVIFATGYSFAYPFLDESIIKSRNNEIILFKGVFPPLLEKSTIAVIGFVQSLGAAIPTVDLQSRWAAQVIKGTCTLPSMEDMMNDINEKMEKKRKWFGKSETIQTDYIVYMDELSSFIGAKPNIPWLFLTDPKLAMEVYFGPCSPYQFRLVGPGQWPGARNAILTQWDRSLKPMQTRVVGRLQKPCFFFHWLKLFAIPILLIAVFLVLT
Experimental: as §1

T8 sequence (P08684 whole entry): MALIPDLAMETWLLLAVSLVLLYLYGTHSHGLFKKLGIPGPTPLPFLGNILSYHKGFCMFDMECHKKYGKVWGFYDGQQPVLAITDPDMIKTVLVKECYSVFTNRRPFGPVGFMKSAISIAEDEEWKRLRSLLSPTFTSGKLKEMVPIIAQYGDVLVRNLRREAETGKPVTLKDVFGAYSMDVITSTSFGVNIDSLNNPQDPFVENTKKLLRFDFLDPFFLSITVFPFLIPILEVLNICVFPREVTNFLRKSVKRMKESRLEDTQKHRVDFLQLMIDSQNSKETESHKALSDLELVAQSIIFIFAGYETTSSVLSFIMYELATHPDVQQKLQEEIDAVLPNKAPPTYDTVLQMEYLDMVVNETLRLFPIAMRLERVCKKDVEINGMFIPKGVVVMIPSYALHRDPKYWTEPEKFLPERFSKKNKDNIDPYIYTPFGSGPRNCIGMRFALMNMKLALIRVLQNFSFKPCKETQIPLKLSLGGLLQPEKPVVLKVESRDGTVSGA
T6 sequence (P11712 whole entry): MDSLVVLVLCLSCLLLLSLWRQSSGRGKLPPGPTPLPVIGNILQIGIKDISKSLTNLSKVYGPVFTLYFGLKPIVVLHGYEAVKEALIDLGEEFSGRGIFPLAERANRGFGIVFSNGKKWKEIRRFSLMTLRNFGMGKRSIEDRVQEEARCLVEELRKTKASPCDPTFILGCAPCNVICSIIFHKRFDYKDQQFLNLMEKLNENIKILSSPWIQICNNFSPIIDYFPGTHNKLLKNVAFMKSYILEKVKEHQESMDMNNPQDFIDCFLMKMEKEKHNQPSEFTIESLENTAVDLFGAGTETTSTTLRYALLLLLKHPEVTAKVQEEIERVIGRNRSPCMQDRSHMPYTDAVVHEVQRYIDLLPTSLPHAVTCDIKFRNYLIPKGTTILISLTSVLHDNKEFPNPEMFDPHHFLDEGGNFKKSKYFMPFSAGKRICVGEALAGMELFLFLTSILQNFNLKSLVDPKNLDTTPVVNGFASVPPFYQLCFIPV
T5 sequence (P10635 whole entry): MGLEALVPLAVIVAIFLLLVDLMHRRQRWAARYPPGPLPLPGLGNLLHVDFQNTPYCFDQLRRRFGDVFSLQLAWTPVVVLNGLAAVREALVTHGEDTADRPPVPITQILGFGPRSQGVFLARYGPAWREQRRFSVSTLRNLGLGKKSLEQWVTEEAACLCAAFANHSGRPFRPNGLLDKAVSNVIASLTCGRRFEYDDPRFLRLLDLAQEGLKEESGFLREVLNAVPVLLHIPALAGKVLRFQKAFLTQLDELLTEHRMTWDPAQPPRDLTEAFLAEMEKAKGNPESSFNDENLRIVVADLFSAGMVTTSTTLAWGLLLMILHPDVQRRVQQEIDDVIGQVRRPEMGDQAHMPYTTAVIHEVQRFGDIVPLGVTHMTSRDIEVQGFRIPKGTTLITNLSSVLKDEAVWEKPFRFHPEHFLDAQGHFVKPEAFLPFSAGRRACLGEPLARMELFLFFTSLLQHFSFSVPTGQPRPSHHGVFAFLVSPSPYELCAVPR
T3 sequence (P33261 whole entry): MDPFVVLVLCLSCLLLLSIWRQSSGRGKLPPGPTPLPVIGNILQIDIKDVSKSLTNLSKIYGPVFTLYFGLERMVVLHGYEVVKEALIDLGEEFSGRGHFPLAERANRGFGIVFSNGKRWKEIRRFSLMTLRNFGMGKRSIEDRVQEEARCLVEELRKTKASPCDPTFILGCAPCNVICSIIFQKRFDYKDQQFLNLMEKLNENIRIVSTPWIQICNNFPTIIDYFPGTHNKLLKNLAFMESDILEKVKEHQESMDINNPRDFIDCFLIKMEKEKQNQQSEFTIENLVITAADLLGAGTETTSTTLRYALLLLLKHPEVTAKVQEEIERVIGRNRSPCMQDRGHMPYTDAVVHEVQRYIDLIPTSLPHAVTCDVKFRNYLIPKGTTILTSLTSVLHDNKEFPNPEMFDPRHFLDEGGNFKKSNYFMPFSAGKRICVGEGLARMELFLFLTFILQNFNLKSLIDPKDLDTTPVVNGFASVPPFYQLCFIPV
T4 sequence (P20815 whole entry): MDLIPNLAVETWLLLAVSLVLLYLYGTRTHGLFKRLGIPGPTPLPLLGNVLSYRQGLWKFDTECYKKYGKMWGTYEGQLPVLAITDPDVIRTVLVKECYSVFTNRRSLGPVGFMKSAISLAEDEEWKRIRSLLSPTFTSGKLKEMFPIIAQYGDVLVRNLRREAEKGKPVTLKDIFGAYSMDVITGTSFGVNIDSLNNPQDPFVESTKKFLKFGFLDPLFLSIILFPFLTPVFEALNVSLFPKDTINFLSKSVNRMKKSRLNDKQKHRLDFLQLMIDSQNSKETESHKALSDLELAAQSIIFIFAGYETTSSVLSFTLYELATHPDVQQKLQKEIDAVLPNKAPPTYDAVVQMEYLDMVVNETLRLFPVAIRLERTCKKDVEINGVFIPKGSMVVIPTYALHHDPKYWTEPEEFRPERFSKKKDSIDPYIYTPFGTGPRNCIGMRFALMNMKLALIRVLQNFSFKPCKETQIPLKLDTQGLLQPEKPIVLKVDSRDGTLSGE
T7 sequence (P05181 whole entry): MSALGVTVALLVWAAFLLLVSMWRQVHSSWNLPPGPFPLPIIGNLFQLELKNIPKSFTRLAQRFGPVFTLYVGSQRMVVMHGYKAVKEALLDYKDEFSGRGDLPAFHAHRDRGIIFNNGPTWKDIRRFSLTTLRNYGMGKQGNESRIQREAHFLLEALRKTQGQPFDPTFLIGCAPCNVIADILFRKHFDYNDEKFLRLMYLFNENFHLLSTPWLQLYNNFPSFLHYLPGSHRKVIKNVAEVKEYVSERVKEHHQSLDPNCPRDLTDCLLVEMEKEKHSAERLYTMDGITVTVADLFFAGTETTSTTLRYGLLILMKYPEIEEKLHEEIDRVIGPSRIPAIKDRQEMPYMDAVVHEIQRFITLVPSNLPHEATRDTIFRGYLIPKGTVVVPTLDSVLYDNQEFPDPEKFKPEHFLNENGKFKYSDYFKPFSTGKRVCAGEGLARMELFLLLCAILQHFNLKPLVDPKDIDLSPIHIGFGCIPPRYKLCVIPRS

| Structure (SMILES) | one-step metabolite detected in CYP2B6 incubation [1] | one-step metabolite detected in CYP2C8 incubation [2] | one-step metabolite detected in CYP2C19 incubation [3] | one-step metabolite detected in CYP3A5 incubation [4] | one-step metabolite detected in CYP2D6 incubation [5] | one-step metabolite detected in CYP2C9 incubation [6] | one-step metabolite detected in CYP2E1 incubation [7] | one-step metabolite detected in CYP3A4 incubation [8] | one-step metabolite detected in CYP1A2 incubation [9] | one-step metabolite detected in CYP2A6 incubation [10] | one-step metabolite detected in FMO3 incubation [11] |
| --- | --- | --- | --- | --- | --- | --- | --- | --- | --- | --- | --- |
| CCNC(CC)C(=O)c1ccc(O)cc1 (stereo not drawn) [MO1.1] | - | - | + | - | + | - | - | - | + | - | - |
| CCC(N)C(=O)c1ccc(OC)cc1 (stereo not drawn) [MO1.3] | + | - | + | - | - | - | - | + | - | - | - |
| CCC(C(=O)c1ccc(OC)cc1)N(O)CC (stereo not drawn) [MO1.4] | + | + | + | + | + | - | - | + | + | - | + |

— article PMC12858467, “In vitro toxicokinetics and metabolic profiling of methoxycathinones and methylthiocathinones using human liver systems and hyphenated mass spectrometry” (Archives of Toxicology, 2025)
